Data on one molecule can be found in patent US20260259222A1, “METHOD OF DIAGNOSING WOUNDS” (TRAUMA CARE CONSULT TRAUMATOLOGISCHE FORSCHUNG …, priority 2022, published 2026).

Structures are written as SMILES.

The test system of assay [1] is p-rpS6 in human dermal fibroblasts (HDFs). As to the kind of experiment: in vitro scratch assay, p-rpS6-positive cells (immunofluorescence). It is filed as cell-based. Conditions: HDFs in basal medium; pre-treatment 10 to 30 min prior to scratch with 20 nM rapamycin or 10 μM U0126; fixed 30 min after scratch; vs DMSO. The procedure:
(§1) To model a skin wound in vitro, cell cultures were subjected to a damage assay to monitor cellular response mechanisms. Commercially available human dermal fibroblasts (HDFs) were cultured in HDF medium (DMEM/F12 (Sigma Aldrich), 10% fetal bovine serum (Sigma Aldrich) and 4 mM L-Glutamine (Gibco)), subcultivated at 90% confluency and used for experiments below passage 15. Immortalised human keratinocytes (HaCaT) were maintained in HACAT medium (DMEM high glucose (Sigma Aldrich), 10% fetal bovine serum (Sigma Aldrich) and 2 mM L-Glutamine (Gibco) and subcultivated at 60% confluency. All cell culture experiments were performed in a humidified incubator at 37° C. and 5% CO2. […]
(§2) For immunofluorescence staining, the coverslips containing damaged and control cells were permeabilized using 0.5% Triton X100 for 5 min, washed three times with PBS for 5 min each, and blocked using PBS with 5% goat serum (VECS-1000, Vector Laboratories) for 1 h. […] For quantification of rpS6 and Erk phosphorylation, ten images per slide were taken along the scratch using an inverted microscope Nikon (Nikon Corporation, Tokyo, Japan) with set exposure times. These images were processed and quantified for total cell count and activated cell count (p-rpS6 or p-ERK positive cells) using set thresholds and particle analysis in Fiji. […]

For assay [2], the system named is p-Erk in human dermal fibroblasts (HDFs). The assay is described as follows: in vitro scratch assay, p-Erk-positive cells (immunofluorescence). It is filed as cell-based. The note with it: HDFs in basal medium; pre-treatment 10 to 30 min prior to scratch with 20 nM rapamycin or 10 μM U0126; fixed 30 min after scratch; vs DMSO. As to the method: as §1, §2

For the molecule `N#CC(=C(/N)Sc1ccccc1N)/C(C#N)=C(\N)Sc1ccccc1N` [U0126], the “effect on p-rpS6 induction (number of cells positive for p-rpS6) in the scratch assay” value in assay [1] is “no significant effect on rpS6 phosphorylation”. The “effect on Erk phosphorylation (number of cells positive for p-Erk) in the scratch assay” value in assay [2] is recorded as “almost completely abrogating p-Erk-positive cells”.
